pEC50: −log10 of the molar value.
Legend:
[1] = target: Voltage-gated potassium channel, KQT; KCNQ2(Kv7.2)/KCNQ3(Kv7.3) (Homo sapiens, UniProt O43525+O43526); experiment: Agonist activity at human KCNQ2/3 expressed in HEK293 cells by FLIPR based thallium influx assay; type: cell-based
[2] = target: Voltage-gated potassium channel, KQT; KCNQ2(Kv7.2)/KCNQ3(Kv7.3) (Homo sapiens) (UniProt O43526+O43525); experiment: Agonist activity at human KCNQ2/3 expressed in HEK293 cells by FLIPR based thallium influx assay relative to retigabine; type: cell-based
[3] = test system: Rattus norvegicus; experiment: Antiallodynic activity in rat model of capsaicin-induced mechanical hyperalgesia assessed as increase in paw withdrawal threshold at 100 mg/kg, ip administered 30 mins before capsaicin addition relative to control; type: functional
[4] = Ratio of drug level in brain to plasma in rat; type: ADME; conditions: read-out: BPR
[5] = test system: Rattus norvegicus; experiment: Antiallodynic activity in rat model of capsaicin-induced mechanical hyperalgesia assessed as increase in paw withdrawal threshold at 3 mg/kg, ip administered 30 mins before capsaicin addition relative to control; type: functional
[6] = test system: Rattus norvegicus; experiment: Antiallodynic activity in rat model of capsaicin-induced mechanical hyperalgesia assessed as increase in paw withdrawal threshold at 30 mg/kg, ip administered 30 mins before capsaicin addition relative to control; type: functional
[7] = Plasma clearance in rat at 1 mg/kg. iv; type: ADME, organism-based
[8] = test system: Rattus norvegicus; experiment: Antiallodynic activity in ip dosed rat model of capsaicin-induced mechanical hyperalgesia assessed as increase in paw withdrawal threshold administered 30 mins before capsaicin addition; type: functional, organism-based
[9] = test system: Rattus norvegicus; experiment: Antiallodynic activity in rat model of capsaicin-induced mechanical hyperalgesia assessed as increase in paw withdrawal threshold at 10 mg/kg, ip administered 30 mins before capsaicin addition relative to control; type: functional
[10] = Half life in rat at 1 mg/kg, iv; type: ADME, organism-based; conditions: in vivo
[11] = AUC in rat at 1 mg/kg, po; type: ADME, organism-based; conditions: in vivo
[12] = Oral bioavailability in rat at 1 mg/kg; type: ADME, organism-based; conditions: in vivo

Voltage-gated potassium channel, KQT; KCNQ2(Kv7.2)/KCNQ3(Kv7.3), sequence (O43526 whole entry): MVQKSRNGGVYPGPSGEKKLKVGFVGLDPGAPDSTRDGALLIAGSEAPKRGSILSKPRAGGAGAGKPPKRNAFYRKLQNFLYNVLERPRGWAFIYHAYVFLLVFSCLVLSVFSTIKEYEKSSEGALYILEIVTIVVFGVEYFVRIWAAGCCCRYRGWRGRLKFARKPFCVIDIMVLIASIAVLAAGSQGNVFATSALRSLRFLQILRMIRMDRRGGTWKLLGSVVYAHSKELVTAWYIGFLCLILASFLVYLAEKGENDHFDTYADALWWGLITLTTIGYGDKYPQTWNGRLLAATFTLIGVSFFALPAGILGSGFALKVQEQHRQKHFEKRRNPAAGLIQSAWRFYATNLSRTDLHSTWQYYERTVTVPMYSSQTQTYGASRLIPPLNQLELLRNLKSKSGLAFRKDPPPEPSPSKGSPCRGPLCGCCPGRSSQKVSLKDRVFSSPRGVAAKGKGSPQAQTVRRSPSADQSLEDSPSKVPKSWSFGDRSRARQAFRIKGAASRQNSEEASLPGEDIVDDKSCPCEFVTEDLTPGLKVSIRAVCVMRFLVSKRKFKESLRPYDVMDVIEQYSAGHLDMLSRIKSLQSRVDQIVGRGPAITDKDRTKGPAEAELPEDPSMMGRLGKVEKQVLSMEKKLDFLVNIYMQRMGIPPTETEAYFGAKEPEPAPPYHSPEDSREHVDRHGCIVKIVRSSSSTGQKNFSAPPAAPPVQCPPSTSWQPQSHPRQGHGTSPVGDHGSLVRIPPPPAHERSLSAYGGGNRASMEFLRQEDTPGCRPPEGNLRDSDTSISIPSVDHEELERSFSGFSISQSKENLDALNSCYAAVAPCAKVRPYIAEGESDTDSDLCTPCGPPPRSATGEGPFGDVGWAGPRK
Voltage-gated potassium channel, KQT; KCNQ2(Kv7.2)/KCNQ3(Kv7.3), sequence (O43525 whole entry): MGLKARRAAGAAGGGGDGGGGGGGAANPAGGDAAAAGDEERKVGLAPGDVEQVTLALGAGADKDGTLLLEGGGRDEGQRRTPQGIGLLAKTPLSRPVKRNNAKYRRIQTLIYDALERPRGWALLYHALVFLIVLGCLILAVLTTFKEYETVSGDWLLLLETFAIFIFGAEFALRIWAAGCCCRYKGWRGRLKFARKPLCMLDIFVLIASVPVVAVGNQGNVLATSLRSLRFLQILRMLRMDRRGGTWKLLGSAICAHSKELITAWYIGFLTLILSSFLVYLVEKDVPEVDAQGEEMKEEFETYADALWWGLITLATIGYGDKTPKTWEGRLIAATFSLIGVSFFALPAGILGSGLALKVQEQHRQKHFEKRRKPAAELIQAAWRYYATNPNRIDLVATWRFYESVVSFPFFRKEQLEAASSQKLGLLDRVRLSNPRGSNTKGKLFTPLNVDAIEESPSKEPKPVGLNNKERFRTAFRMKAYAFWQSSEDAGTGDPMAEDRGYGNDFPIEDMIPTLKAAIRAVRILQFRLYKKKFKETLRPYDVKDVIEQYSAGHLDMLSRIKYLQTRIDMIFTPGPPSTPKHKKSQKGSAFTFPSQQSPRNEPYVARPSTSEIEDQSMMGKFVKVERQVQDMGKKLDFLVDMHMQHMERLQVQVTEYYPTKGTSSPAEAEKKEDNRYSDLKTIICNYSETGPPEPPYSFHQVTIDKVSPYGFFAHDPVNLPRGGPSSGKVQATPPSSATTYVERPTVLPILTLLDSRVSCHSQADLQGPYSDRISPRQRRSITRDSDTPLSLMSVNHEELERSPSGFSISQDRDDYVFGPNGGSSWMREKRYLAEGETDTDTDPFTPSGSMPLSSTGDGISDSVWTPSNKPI

| SMILES | pEC50 [1] | Emax [2] | other results |
| --- | --- | --- | --- |
| Cc1cnc2c(-c3ccc(F)c(C)c3)c(NC(=O)CC3CCCC3)nn2c1 | 6.85 | 168% |  |
| O=C(Nc1nn2cccnc2c1-c1ccc(F)cc1)C1CCCC1 | < 4.49 | 20% |  |
| CCOC(=O)Nc1ccc(NCc2ccc(F)cc2)cc1N [EZOGABINE] | 5.36 | 99% |  |
| Cc1cnc2c(-c3ccc(F)c(C)c3)c(NC(=O)CC(C)(C)C)nn2c1 | 6.23 | 159% |  |
| CC(C)(C)c1ccnc2c(NC(=O)Cc3cc(F)cc(F)c3)cnn12 | 6.04 | 149% |  |
| O=C(CC1CCCCC1)Nc1nn2cccnc2c1-c1ccccc1 | 6.54 | 133% |  |
| Cc1cc(-c2c(NC(=O)CC(C)(C)C)nn3cccnc23)ccc1F | 5.64 | 135% |  |
| O=C(CCC1CCCC1)Nc1nn2cccnc2c1-c1ccc(F)cc1 | 6.85 |  |  |
| Cc1cc(-c2c(NC(=O)CCC3CCCC3)nn3cccnc23)ccc1F | 6.74 | 169% |  |
| CC(C)(C)CC(=O)Nc1nn2cccnc2c1-c1ccc(F)cc1 | 5.17 |  |  |
| O=C(CCC1CCCC1)Nc1nn2cccnc2c1-c1ccc(OC(F)(F)F)cc1 | 6.51 |  |  |
| O=C(CC1CCCC1)Nc1nn2cccnc2c1-c1ccc(OC(F)(F)F)cc1 | 6.72 | 88% |  |
| Cc1cc(C)n2nc(NC(=O)CCC3CCCC3)c(-c3ccc(F)c(C)c3)c2n1 | 7.15 | 205% |  |
| O=C(Nc1nn2cccnc2c1-c1ccccc1)C1CCCCC1 |  | 8% |  |
| O=C(CC1CCCC1)Nc1nn2cccnc2c1-c1ccc(C(F)(F)F)cc1 |  | 28% |  |
| CC(C)(C)CC(=O)Nc1nn2c(C(C)(C)C)ccnc2c1-c1ccc(OC(F)(F)F)cc1 | < 4.49 |  |  |
| Cc1cc(-c2c(NC(=O)CC3CCCC3)nn3cccnc23)ccc1F | 5.93 | 139% |  |
| CCOC(=O)Nc1ccc(NCc2ccc(F)cc2)nc1N [FLUPIRTINE] | 6.25 | 112% |  |
| Cc1cc(C)n2nc(NC(=O)CC3CCCC3)c(-c3ccc(F)c(C)c3)c2n1 | 7.15 | 165% |  |
| NCC1(CC(=O)O)CCCCC1 [GABAPENTIN] |  |  | Activity [3]: 70% |
| O=C(CCC1CCCC1)Nc1nn2cccnc2c1-c1ccc(C(F)(F)F)cc1 | 7.30 |  |  |
| Cc1cc(C)n2nc(NC(=O)CC(C)(C)C)c(-c3ccc(F)c(C)c3)c2n1 | 7.30 |  |  |
| Cc1cnc2c(-c3ccc(F)c(C)c3)c(NC(=O)CCC3CCCC3)nn2c1 | 7.10 |  |  |
| CC(C)(C)CC(=O)Nc1nn2cccnc2c1-c1ccc(OC(F)(F)F)cc1 | 6.39 |  | Kp [4]: 3.8; Activity [5]: 10%; Activity [6]: 52%; clearance [7]: 13.3 mL/min/kg; Activity [8]: Dose-dependent effect; Activity [9]: 26%; half-life [10]: 1.9 h; AUC [11]: 706 ng·h/mL; bioavailability [12]: 56% |
| CC(C)(C)CC(=O)Nc1nn2cccnc2c1-c1ccccc1 |  | 26% |  |
| CC(C)(C)CC(=O)Nc1nn2cccnc2c1-c1ccc(C(F)(F)F)cc1 | 6.85 | 113% |  |
| O=C(CC1CCCC1)Nc1nn2cccnc2c1-c1ccc(F)cc1 | 6.00 | 100% |  |
| O=C(CCC1CCCCC1)Nc1nn2cccnc2c1-c1ccccc1 | 6.89 |  |  |
